From ChEMBL document CHEMBL1926670, “1,2-Benzothiazine 1,1-dioxide carboxylate derivatives as novel potent inhibitors of aldose reductase” (Bioorg Med Chem, 2011)

Key:
[1] = target: Aldo-keto reductase family 1 member B1 (Rattus norvegicus, UniProt P07943); test: Inhibition of Wistar rat lens ALR2 using D,L-glyceraldehyde as substrate after 10 mins by UV/VIS double spectrophotometric analysis; format: tissue-based, Lens of camera-type eye
[2] = target: Aldo-keto reductase family 1 member A1 (Rattus norvegicus, UniProt P51635); test: Inhibition of Wistar rat kidney ALR1 using D-glucuronate as substrate after 10 mins by UV/VIS double spectrophotometric analysis
[3] = target: Aldo-keto reductase family 1 member B1 (Rattus norvegicus) (UniProt P07943); test: Inhibition of Wistar rat lens ALR2 using D,L-glyceraldehyde as substrate at 10 uM after 10 mins by UV/VIS double spectrophotometric analysis; format: tissue-based; conditions: Lens of camera-type eye

Chain of Aldo-keto reductase family 1 member A1 (P51635 whole entry, looked up): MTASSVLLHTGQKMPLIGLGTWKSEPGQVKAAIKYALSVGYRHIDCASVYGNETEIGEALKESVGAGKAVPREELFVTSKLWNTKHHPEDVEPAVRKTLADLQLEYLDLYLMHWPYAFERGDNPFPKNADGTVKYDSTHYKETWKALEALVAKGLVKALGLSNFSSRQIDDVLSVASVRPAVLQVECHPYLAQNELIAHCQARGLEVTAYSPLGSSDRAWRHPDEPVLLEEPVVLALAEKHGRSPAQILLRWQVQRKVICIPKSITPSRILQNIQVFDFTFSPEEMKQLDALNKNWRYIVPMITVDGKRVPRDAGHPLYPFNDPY

| Compound | IC50 [1] | IC50 [2] | inhibition [3] |
| --- | --- | --- | --- |
| O=C(O)/C=C1\CN(Cc2cccc([N+](=O)[O-])c2)S(=O)(=O)c2ccccc21 (mixture of isomers) | 140 nM | > 10000 nM |  |
| O=C(O)/C=C1\CN(Cc2ccccc2F)S(=O)(=O)c2ccccc21 (mixture of isomers) | 2130 nM |  |  |
| O=C(O)CC1CN(Cc2ccccc2F)S(=O)(=O)c2ccccc21 (racemic) | 1730 nM |  |  |
| O=C(O)/C=C1\CN(Cc2cc(F)c(F)cc2F)S(=O)(=O)c2ccccc21 (mixture of isomers) | 590 nM | > 10000 nM |  |
| O=C(O)/C=C1\CN(Cc2cc(C(F)(F)F)cc(C(F)(F)F)c2)S(=O)(=O)c2ccccc21 (mixture of isomers) |  |  | 32% |
| O=C(O)CC1CN(Cc2cc(F)c(F)cc2F)S(=O)(=O)c2ccccc21 (racemic) | 340 nM | > 10000 nM |  |
| O=C(O)CC1CN(Cc2cc(C(F)(F)F)cc(C(F)(F)F)c2)S(=O)(=O)c2ccccc21 (racemic) | 10400 nM |  |  |
| O=C(O)CC1CN(Cc2ccc(C(F)(F)F)cc2)S(=O)(=O)c2ccccc21 (racemic) | 5300 nM |  |  |
| O=C(O)/C=C1\CN(Cc2ccc(Br)cc2F)S(=O)(=O)c2ccccc21 (mixture of isomers) | 110 nM | > 10000 nM |  |
| O=C(O)/C=C1\CN(Cc2ccc(C(F)(F)F)cc2)S(=O)(=O)c2ccccc21 (mixture of isomers) | 6130 nM |  |  |
